Assays:
Type in all cases: cell-based
OAT2r [1] = molecular target: T1, OAT2r (Rattus norvegicus, UniProt Q5RLM2); experiment: trans-stimulation of efflux of 3H-orotic acid via OAT2r; conditions: for trans-stimulation of efflux of 3H-orotic acid (in words): 1 mmol/l compound in uptake buffer, 1 min, preloaded cells
T1 construct: expressed in transfected cells
T1 sequence (Q5RLM2 1-535): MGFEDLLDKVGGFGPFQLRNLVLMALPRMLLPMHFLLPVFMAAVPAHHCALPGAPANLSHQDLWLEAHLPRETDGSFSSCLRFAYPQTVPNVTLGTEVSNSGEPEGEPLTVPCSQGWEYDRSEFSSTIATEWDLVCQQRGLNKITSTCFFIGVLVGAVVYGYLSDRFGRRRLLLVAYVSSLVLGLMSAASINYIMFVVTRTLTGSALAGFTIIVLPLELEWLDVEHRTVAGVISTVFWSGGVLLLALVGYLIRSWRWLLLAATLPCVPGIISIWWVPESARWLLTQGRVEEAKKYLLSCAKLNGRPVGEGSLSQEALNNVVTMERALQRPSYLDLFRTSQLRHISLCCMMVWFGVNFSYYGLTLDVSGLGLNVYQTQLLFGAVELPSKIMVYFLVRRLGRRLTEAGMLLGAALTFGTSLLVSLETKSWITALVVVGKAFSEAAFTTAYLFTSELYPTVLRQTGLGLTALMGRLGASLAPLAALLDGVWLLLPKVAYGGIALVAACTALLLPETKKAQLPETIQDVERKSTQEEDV

OAT1h = molecular target: T2, OAT1h (Homo sapiens, UniProt Q4U2R8); experiment: uptake/accumulation in 293 cells expressing OAT1h; conditions: for clearance: 1 min uptake, 0.1 μmol/l radiotracer
T2 construct: expressed in transfected cells; host or cells: 293 cells (HEK-293), pEBTetD plasmid, doxycycline-inducible
T2 sequence (Q4U2R8 1-550 isoform Q4U2R8-2): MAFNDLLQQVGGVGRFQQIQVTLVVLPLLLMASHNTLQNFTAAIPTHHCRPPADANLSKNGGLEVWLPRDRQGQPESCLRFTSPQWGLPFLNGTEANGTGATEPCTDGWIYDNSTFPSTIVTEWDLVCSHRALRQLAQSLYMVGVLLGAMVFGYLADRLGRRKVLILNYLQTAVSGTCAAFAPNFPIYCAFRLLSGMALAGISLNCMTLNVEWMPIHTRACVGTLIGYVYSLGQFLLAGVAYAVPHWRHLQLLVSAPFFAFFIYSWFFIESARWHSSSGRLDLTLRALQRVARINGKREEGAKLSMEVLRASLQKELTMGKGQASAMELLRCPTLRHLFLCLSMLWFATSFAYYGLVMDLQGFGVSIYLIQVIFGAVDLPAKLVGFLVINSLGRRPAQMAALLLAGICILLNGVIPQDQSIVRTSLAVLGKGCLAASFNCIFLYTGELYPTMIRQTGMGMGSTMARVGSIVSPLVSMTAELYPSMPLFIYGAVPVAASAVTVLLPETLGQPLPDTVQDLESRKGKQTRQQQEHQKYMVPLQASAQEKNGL
Procedure: (§1) The trigonelline content of cell lysates was determined by LC-MS/MS. […] 293 cells transfected with pEBTetD plasmids for the expression of SLC22 family carriers as indicated were grown in dishes and incubated overnight with (expression on) or without (off) doxycyclin in standard culture medium. Cells were washed with uptake buffer, incubated (1 min, 37° C.) in uptake buffer with or without 10 μmol/l unlabeled trigonelline, washed, and lysed.
(§2) For measurement of solute uptake, cells were grown in surface culture on 60 mm polystyrol dishes (Nunclon 150288, Nunc, Roskilde, Denmark) precoated with 0.1 g/l poly-L-ornithine in 0.15 M boric acid-NaOH, pH 8.4. Cells were used for uptake experiments at a confluence of at least 70%. Uptake was measured at 37° C. Uptake buffer contains 125 mmol/l NaCl, 25 mmol/l HEPES-NaOH pH 7.4, 5.6 mmol/l (+)glucose, 4.8 mmol/l KCl, 1.2 mmol/l KH2PO4, 1.2 mmol/l CaCl2, and 1.2 mmol/l MgSO4. In glutamate efflux experiments, uptake buffer without KH2PO4 was used to avoid MS interference. After preincubation for at least 20 minutes in 4 ml of uptake buffer, the buffer was replaced with 2 ml of substrate in uptake buffer. The total substrate concentration if not indicated otherwise was 0.1 μmol/l for radiotracer assays and 10 μmol/l for unlabeled compounds. Incubation was stopped after 1 min by rinsing the cells four times each with 4 ml ice-cold uptake buffer. Radioactivity was determined, after cell lysis with 0.1% v/v Triton X-100 in 5 mmol/l TRIS-HCl pH 7.4, by liquid scintillation counting. For LCelectrospray ionization-MS/MS analysis, cells were lysed with methanol and stored at −20° C.
(§3) After centrifugation (1 min, 16000×g, 20° C.) of thawed lysates, 100 μl of the supernatant was mixed with either 10 μl unlabeled MPP+ iodide (0.5 ng/μl) or biphenyl-4-carboxylic acid (Sigma-Aldrich) as internal standard. Of this mixture, […] were analyzed by LCMS/MS on a triple quadrupole mass spectrometer (4000 Q TRAP, Applied Biosystems, Darmstadt, Germany). […] For quantification (scan time 150 ms), the optimal collision energy for argon-induced fragmentation in the second quadrupole was determined for each analyte. […] Sample analyte content was calculated from the analyte response ratio and the slope of the calibration curve, obtained by linear regression. With LC-MS quantitation, solute content of cell lysates was determined for 4 conditions (paired dishes, incubation time 1 min): a) transporter expression on, uptake buffer; b) expression off, uptake buffer; c) expression on, substrate in uptake buffer; d) expression off, substrate in uptake buffer. Acute uptake mediated by heterologously expressed carrier was then calculated as (c−a)−(d−b). […] Protein was measured by the BCA assay (Pierce) with bovine serum albumin as standard. […]

SLC22A13h = molecular target: T3, SLC22A13h (Homo sapiens, UniProt Q9Y226); experiment: uptake/accumulation in 293 cells expressing SLC22A13h; conditions: for clearance: 1 min uptake, 0.1 μmol/l radiotracer
T3 construct: expressed in transfected cells; host or cells: 293 cells (HEK-293), pEBTetD plasmid, doxycycline-inducible
T3 sequence (Q9Y226 whole entry): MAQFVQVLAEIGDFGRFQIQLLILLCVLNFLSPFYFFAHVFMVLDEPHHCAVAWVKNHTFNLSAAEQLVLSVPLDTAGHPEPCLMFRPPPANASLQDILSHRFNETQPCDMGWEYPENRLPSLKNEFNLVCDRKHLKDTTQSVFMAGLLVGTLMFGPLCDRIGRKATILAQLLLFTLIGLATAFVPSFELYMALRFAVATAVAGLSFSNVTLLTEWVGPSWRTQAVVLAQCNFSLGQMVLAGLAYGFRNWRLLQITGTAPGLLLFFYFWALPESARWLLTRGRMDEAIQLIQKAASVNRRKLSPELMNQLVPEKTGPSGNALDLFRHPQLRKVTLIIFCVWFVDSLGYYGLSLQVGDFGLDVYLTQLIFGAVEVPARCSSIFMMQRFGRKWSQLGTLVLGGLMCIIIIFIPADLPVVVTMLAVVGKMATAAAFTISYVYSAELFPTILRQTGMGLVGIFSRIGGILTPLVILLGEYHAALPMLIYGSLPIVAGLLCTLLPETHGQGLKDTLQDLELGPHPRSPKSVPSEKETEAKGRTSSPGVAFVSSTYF
Procedure: as §1, §2, §3

OAT2r [2] = molecular target: T1, OAT2r; experiment: time course of uptake into OAT2r-expressing 293 cells; conditions: for clearance kin: 10 μmol/l unlabeled substrate, 37° C., OAT2r-expressing cells; for factor by which expression of OAT2r increased the clearance: kin on versus off

| intracellular plateau (OAT2r [2]; 10 μmol/l unlabeled orotic acid, after 60 min, LC-MS/MS) [nmol/mg protein] | intracellular concentration corresponding to plateau (OAT2r [2]; calculated with an intracellular water space of 6.7 μl/mg protein) [µmol/L] | clearance kin (OAT2r [2]; time course) [μl min-1 mg protein-1] | factor by which expression of OAT2r increased the clearance (OAT2r [2]; time course) | kout (OAT2r [2]; time course, unlabeled orotic acid, expression on) [min⁻¹] | cell content directly after washing (OAT2r [1]; 1 h, 37° C. preloading with 100 μmol/l 3H-orotic acid, OAT2r-expressing cells, n=4) [nmol/mg protein] | accumulation of trigonelline upon carrier expression (in words) (OAT1h; expression of OAT1 in 293 cells, FIG. 14) | accumulation of trigonelline upon carrier expression (in words) (SLC22A13h; expression of SLC22A13 in 293 cells, FIG. 14) | SMILES | trans-stimulation of efflux of 3H-orotic acid (in words) (OAT2r [1]) | transport of glutamate (in words) (OAT1h) | clearance (OAT1h) [μl min-1 mg protein-1] | transport of glutamate (in words) (SLC22A13h) | clearance (SLC22A13h) [μl min-1 mg protein-1] |
| --- | --- | --- | --- | --- | --- | --- | --- | --- | --- | --- | --- | --- | --- |
|  |  |  |  |  |  |  |  | N[C@@H](CCC(=O)O)C(=O)O [glutamate] | accelerated efflux | do not transport | 2.5±0.4 | do not transport | 0.3±0.6 |
| 5.8 | 870 | 50.1±6.4 | 86 | 0.09 ± 0.01 | 56±3 |  |  | O=C(O)c1cc(=O)[nH]c(=O)[nH]1 [orotic acid] | markedly accelerated efflux |  | 1.6±0.1 |  | 3.8±0.3 |
|  |  | 5.1±1.4 | ~50 |  |  | without effect | without effect | C[n+]1cccc(C(=O)[O-])c1 [trigonelline] |  |  |  |  |  |
